For 6 compounds, IC50 results are on record in US11236129B2, “IL-17A binding peptides and medical uses thereof” (Dompe' Farmaceutici S.P.A., priority 2018, dated 2022).

The target in the assay is IL-17RA/IL17RC dimerization induced by IL-17A (Homo sapiens, UniProt Q16552). Nature of the assay: IL-17RA/IL17RC dimerization assay in response to IL-17A (PathHunter Cytokine Receptor Assay). It counts as cell-based. The conditions noted are these: IL-17A at EC80; read-out: IC50 in IL-17RA/IL7RC dimerization assay. The gist of the method:
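PathHunter cells with IL-17RA and IL-17RC tagged for β-galactosidase complementation were preincubated 60 min with peptide (1% vehicle). IL-17A was then added at EC80 for 6–16 h at 37 °C, and chemiluminescence was read. Inhibition is relative to the EC80 and vehicle controls.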

Residues, ends and D or L forms follow the SMILES beside them.

Sequence of IL-17RA/IL17RC dimerization induced by IL-17A (Q16552 24-155): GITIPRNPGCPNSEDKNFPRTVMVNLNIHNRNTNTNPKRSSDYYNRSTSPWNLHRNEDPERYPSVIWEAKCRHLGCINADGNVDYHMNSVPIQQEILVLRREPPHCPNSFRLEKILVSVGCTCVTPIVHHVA

For `CC[C@H](C)[C@H](NC(=O)[C@H](CCC(=O)O)NC(=O)[C@H](CCC(N)=O)NC(=O)[C@@H]1CCCN1C(=O)[C@@H](NC(=O)[C@@H](NC(=O)[C@@H](NC(=O)[C@H](Cc1c[nH]cn1)NC(=O)[C@@H](NC(C)=O)C(C)C)C(C)C)[C@@H](C)O)[C@@H](C)CC)C(=O)N[C@@H](Cc1c[nH]c2ccccc12)C(=O)N[C@@H](CCC(=O)O)C(=O)N[C@@H](Cc1c[nH]c2ccccc12)C(=O)N[C@H](C(=O)N[C@@H](CCCNC(=N)N)C(=O)N[C@@H](CCCNC(=N)N)C(N)=O)C(C)C` [SEQ ID NO: 237] (Ac-VHVTIPQEIWEWVRR-NH2), the IC50 was < 10 µM.
The same measure for `CC(=O)N[C@H](C(=O)N[C@@H](Cc1c[nH]cn1)C(=O)N[C@@H](Cc1ccccc1)C(=O)N[C@H](C(=O)N[C@H](C(=O)N1CCC[C@H]1C(=O)N[C@@H](CCC(N)=O)C(=O)N[C@@H](CCC(=O)O)C(=O)N[C@@H](CC(C)C)C(=O)N[C@@H](Cc1ccc(O)cc1)C(=O)N[C@@H](CCC(=O)O)C(=O)N[C@@H](Cc1c[nH]c2ccccc12)C(=O)N[C@H](C(=O)N[C@@H](CCCNC(=N)N)C(=O)N[C@@H](CCCNC(=N)N)C(N)=O)C(C)C)C(C)C)[C@@H](C)O)C(C)C` [SEQ ID NO: 238] (Ac-VHFTVPQELYEWVRR-NH2): < 10 µM; for `CC[C@H](C)[C@H](NC(=O)[C@H](Cc1c[nH]c2ccccc12)NC(=O)[C@H](CC(=O)O)NC(=O)[C@H](Cc1c[nH]c2ccccc12)NC(=O)[C@H](CC(C)C)NC(=O)[C@H](CC(=O)O)NC(=O)[C@H](C)NC(=O)[C@@H]1CCCN1C(=O)[C@@H](NC(=O)[C@H](CO)NC(=O)[C@@H](NC(=O)[C@H](CCCCN)NC(=O)[C@@H](NC(C)=O)C(C)C)[C@@H](C)CC)C(C)C)C(=O)N[C@@H](CC(N)=O)C(=O)N[C@@H](CCCCN)C(N)=O` [SEQ ID NO: 239] (Ac-VKISVPADLWDWINK-NH2): < 10 µM.
Consider `CC[C@H](C)[C@H](NC(=O)[C@H](Cc1c[nH]c2ccccc12)NC(=O)[C@H](CC(=O)O)NC(=O)[C@H](Cc1c[nH]c2ccccc12)NC(=O)[C@H](CC(C)C)NC(=O)[C@H](CC(=O)O)NC(=O)[C@H](C)NC(=O)[C@@H]1CCCN1C(=O)[C@@H](NC(=O)[C@H](CO)NC(=O)[C@@H](NC(=O)[C@H](CCCNC(=N)N)NC(=O)[C@H](CC(C)C)NC(C)=O)[C@@H](C)CC)C(C)C)C(=O)N[C@@H](CC(N)=O)C(=O)N[C@@H](CCCCN)C(N)=O` [SEQ ID NO: 240] (Ac-LRISVPADLWDWINK-NH2), for which the IC50 is < 10 µM.
On to `CC[C@H](C)[C@H](NC(=O)[C@H](Cc1c[nH]c2ccccc12)NC(=O)[C@H](CC(=O)O)NC(=O)[C@H](Cc1c[nH]c2ccccc12)NC(=O)[C@H](CC(C)C)NC(=O)[C@H](CC(=O)O)NC(=O)[C@H](C)NC(=O)[C@@H]1CCCN1C(=O)[C@@H](NC(=O)[C@H](Cc1ccc(O)cc1)NC(=O)[C@@H](NC(=O)[C@H](CCCNC(=N)N)NC(=O)[C@H](CC(C)C)NC(C)=O)[C@@H](C)CC)C(C)C)C(=O)N[C@@H](CC(N)=O)C(=O)N[C@@H](CCCCN)C(N)=O` [SEQ ID NO: 241] (Ac-LRIYVPADLWDWINK-NH2), for which the IC50 was < 10 µM.
The same measure for `CC[C@H](C)[C@H](NC(=O)[C@H](Cc1c[nH]c2ccccc12)NC(=O)[C@H](CC(=O)O)NC(=O)[C@H](Cc1c[nH]c2ccccc12)NC(=O)[C@H](CC(C)C)NC(=O)[C@H](CC(=O)O)NC(=O)[C@H](C)NC(=O)[C@@H]1CCCN1C(=O)[C@@H](NC(=O)[C@H](Cc1ccc(O)cc1)NC(=O)CNC(=O)[C@H](CCCNC(=N)N)NC(=O)[C@@H](NC(C)=O)C(C)C)C(C)C)C(=O)N[C@@H](CC(N)=O)C(=O)N[C@@H](CCCCN)C(N)=O` [SEQ ID NO: 242] (Ac-VRGYVPADLWDWINK-NH2): < 10 µM.
